From paper PMC9562005, “The Kinetic Mechanism of 3′-5′ Exonucleolytic Activity of AP Endonuclease Nfo from E. coli” (Cells, 2022) come the findings set out here.

For this assay, the target named is T1, Nfo (AP endonuclease Nfo, endonuclease IV) (Escherichia coli, UniProt P0A6C1).
T1 construct: full-length from pET-11a with nfo gene, expressed in E. coli BL21(DE3); 30 kDa, 3 Zn2+ in active site; the PDB entries are earlier structures of Nfo-DNA complexes
As to the kind of experiment: stopped-flow 2-aminopurine fluorescence, inhibition of […]'-5' exonuclease. Type of assay: biochemical.

Regarding `Nc1nc2c(ncn2[C@H]2C[C@H](O)[C@@H](COP(=O)(O)O)O2)c(=O)[nH]1` [2′-deoxyguanosine monophosphate], it took 3.2 ± 0.4 mM to reach half-maximal inhibition (IC50). Take `Cc1cn([C@H]2C[C@H](O)[C@@H](COP(=O)(O)O)O2)c(=O)[nH]c1=O` [thymidine monophosphate]: half-maximal inhibition (IC50) required 4.4 ± 0.5 mM.

By IC50 is commonly meant the point on the concentration scale where inhibition reaches its midpoint.
